# Literature values, collected in EP1399019B1, “ADJUVANT COMPOSITIONS AND PESTICIDES” (HUNTSMAN PETROCHEMICAL CORPORATION, priority 2001, dated 2002).
# Read-outs that look alike come from different tables or passages of the source.
compound,measurement,setting,value
"CNC(=O)CSP(=S)(OC)OC [Cygon, dimethoate]",time to lose 50 percent of its pest control power,mixed in water of pH 9,48 min
same,time to lose 50 percent of its pest control power,pH of 6,720 min
